Measurements: patent US12661338B2, “Heterocyclic compounds as modulators of beta-catenin / TCF4 interaction” (AGENCY FOR SCIENCE, TECHNOLOGY AND RESEARCH, priority 2019, dated 2026)

Legend:
[1] = tested on: CRC1775; experiment: Viability of primary patient-derived colorectal cancer cell line; assay type: cell-based
[2] = tested on: CRC2255; experiment: as above; assay type: cell-based
[3] = tested on: CRC948; experiment: as above; assay type: cell-based
[4] = target: T1, His-tagged human β-cat (134-668) (Homo sapiens, UniProt P35222); experiment: SPR binding to β-cat
T1 construct: His-tagged human β-cat (134-668); made in house; host or cells: E. coli BL21(DE3)
Procedure: BL21(DE3) cells harboring pET-28 β-cat expression vector of His-tagged human β-cat (134-668) were cultured at 37° C. until OD600=0.6-0.8. The cells were then induced with 500 μM isopropyl-β-D-thiogalactopyranoside (IPTG) for 6-8 hr at 23° C. Cells were lysed by sonication in lysis buffer containing 20 mM Tris (pH 8.8), 250 mM NaCl, 2 mM DTT, 5% glycerol, 0.1% Triton X-100, and cOmplete protease inhibitor cocktail (EDTA free, Roche cat. #11873580001). The lysate was incubated with Ni-NTA agarose beads (Qiagen cat. #30210) at 4° C. for 1 hr, and the beads were then washed with lysis buffer containing 20 mM imidazole. Bound protein was eluted with buffer containing 20 mM Tris (pH 8.8), 250 mM NaCl, 0.5 mM tris(2-carboxyethyl)phosphine (TCEP), 5% glycerol, and 250 mM imidazole.
Surface plasmon resonance experiments were performed using a BIACORE T100 (GE Healthcare) on a CM5 series S sensor chip (GE Healthcare cat. #BR-1005-30). His-tagged β-cat (60 kDa, >90% pure based on SDS-PAGE) was immobilized using amine-coupling chemistry. The surfaces of flow cells one and two were activated with a 1:1 mixture of 0.1 M NHS (N-hydroxysuccinimide) and 0.1 M EDC (3-(N,N-dimethylamino) propyl-N-ethylcarbodiimide) at a flow rate of 5 μL/min. […]

[5] = tested on: STF3A cells; experiment: Viability (toxicity) of STF3A reporter cells, CCK-8; assay type: cell-based; details: Table 3; STF3A reporter cell line
Procedure: The Wnt STF3A reporter cells were seeded as 20,000 cells in 100 μL culture medium per well in 96-well plates (Corning cat. #3903, Falcon cat. #353072). The next day, 5-fold dilutions of the compounds in DMSO were added to the cells at a final concentration of 1% DMSO. After 24 hr incubation, the viability of the cells was determined with cell counting kit-8 (CCK-8, Dojindo cat. #CK04) cell viability reagent according to the manufacturer's protocol while the TOPFlash reporter activity was determined with Steady-Glo luciferase reagent.
(§1) The average signal from DMSO treated wells was calculated for each plate, and the signal from each treatment well was normalized against the average DMSO signal from the respective plate. The normalized values were plotted against the concentrations tested using GraphPad Prism 5, and the EC50 values were determined through either three- or four-parameter nonlinear regression.

[6] = tested on: CRC1850; experiment: Viability of primary patient-derived colorectal cancer cell line; assay type: cell-based; details: CRC1850, Liver Met
[7] = tested on: Myc reporter (Luc)-HCT116 cells; experiment: Myc signalling reporter dose response; assay type: cell-based; details: Homo sapiens, HCT-116, 24 hr
Procedure: The Myc reporter (Luc)-HCT116 cells were seeded as 25,000 cells in 100 μL assay medium per well in 96-well plates (Corning cat. #3903, Falcon cat. #353072). The assay medium consists of the growth medium without G-418. The next day, 4-fold dilutions of the compounds in DMSO were added to the cells at a final concentration of 1% DMSO. After 24 hr incubation, the viability of the cells was determined with PrestoBlue cell viability reagent while the luciferase reporter activity was determined with Steady-Glo luciferase reagent.
as §1

[8] = tested on: HCT116 xenografts; experiment: Mouse xenograft and compound treatment; assay type: in vivo; details: NSG mice, 50 mg/kg every other day i.p.
Procedure: HCT 116 cells (1×10^6 cells per site) and were implanted subcutaneously into the right flanks of 5-7 weeks old NSG (NOD scid gamma) (Jackson Laboratory, stock no. 005557) mice. When tumours reached a size of 60-100 mm^3 in volume, the animals were randomised to either the treatment or control group. Mice in the treatment group were administered with compound GB1874 at 50 mg/kg every other day via intraperitoneal injection. Simultaneously animals in the control group were administered with the diluent in the absence of compound. Compound GB1874 was prepared by dissolving it in DMSO to a concentration of 60 mg/mL and diluting it in 5% PEG 300, 5% Tween-80 in saline to a final concentration of 3 mg/mL, 5% DMSO. The length and width of tumours were measured by caliper once every 2 days. Tumour volumes were estimated using the following modified ellipsoidal formula: Tumour volume=½(length×width^2). Mice were euthanized when tumours in the control group reaches 2000 mm^3.

[9] = tested on: CRC2440; experiment: Viability of primary patient-derived colorectal cancer cell line; assay type: cell-based
[10] = tested on: CRC1846; experiment: as above; assay type: cell-based
[11] = tested on: CRC2423; experiment: as above; assay type: cell-based
[12] = tested on: CRC1489; experiment: as above; assay type: cell-based
[13] = tested on: CRC1671; experiment: as above; assay type: cell-based

T1 sequence (P35222 134-668): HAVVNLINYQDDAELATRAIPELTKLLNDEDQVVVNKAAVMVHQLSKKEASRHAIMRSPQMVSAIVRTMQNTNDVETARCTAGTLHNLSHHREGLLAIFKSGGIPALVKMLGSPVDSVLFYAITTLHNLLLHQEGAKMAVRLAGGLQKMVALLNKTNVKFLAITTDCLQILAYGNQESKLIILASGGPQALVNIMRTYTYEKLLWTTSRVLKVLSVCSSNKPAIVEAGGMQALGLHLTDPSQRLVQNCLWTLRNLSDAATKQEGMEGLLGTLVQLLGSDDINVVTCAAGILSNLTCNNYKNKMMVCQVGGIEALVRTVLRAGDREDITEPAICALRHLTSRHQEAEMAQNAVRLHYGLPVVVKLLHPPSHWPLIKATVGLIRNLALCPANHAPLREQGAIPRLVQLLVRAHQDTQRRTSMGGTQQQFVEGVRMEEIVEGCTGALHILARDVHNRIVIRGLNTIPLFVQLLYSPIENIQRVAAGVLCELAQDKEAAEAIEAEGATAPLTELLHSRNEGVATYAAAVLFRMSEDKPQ

## CCc1ccc(OCc2nnc(SC3CCCC3=O)n2C(C)c2ccccc2)cc1 (stereo not shown) [GB1874]
[1]
  EC50: 74 µM
[2]
  EC50: 20 µM
[3]
  EC50: 17 µM
[4]; SPR steady state, n=3, 25° C., read-out: dissociation constant KD
  Kd: 76 ± 13 µM
[4]; SPR steady-state binding curve
  Hill slope of the best fit curve: greater than 1
[5]
  IC50: 64 µM
[6]
  EC50: 37 µM
[7]
  IC50: 32 µM
[8]
  expression of cyclin D1 and Ki67 in xenograft tumours (IHC): reduction in the expression of Wnt target gene, cyclin D1, as well as the proliferation marker, Ki67
[8]; 2 weeks
  systemic toxicity in the mice (body weight): minimal systemic toxicity
[8]; 2 weeks, 50 mg/kg
  growth of HCT116 xenografts (tumour volume): effectively inhibited the growth of HCT116 xenografts in vivo
[9]
  EC50: 16 µM
[10]
  EC50: 17 µM
[11]
  EC50: 30 µM
[12]
  EC50: 41 µM
[13]
  EC50: 30 µM
